Values of other authors in US5399360A, “Pharmaceutical compositions” (Sandoz Pharmaceuticals Corp., priority 1986, dated 1995).

Settings: described in German Patent 2,111,071

For CN1CCC(=C2c3ccccc3CC(=O)c3sccc32)CC1 [Ketotifen, 4-(1-methyl-4-piperidylidene)-4H-benzo[4,5]cyclohepta[1,2-b]thiophen-10(9H)-one], the pharmacological properties is given as “anti-anaphylacticand anti-histamine properties”.
